# Target: T1, human PAR-1 (Homo sapiens, UniProt P25116)
# T1 construct: expressed in transfected cells; host or cells: CHO-K1 (transformant flag/trn/CHO-K1)
# T1 sequence (P25116 22-425): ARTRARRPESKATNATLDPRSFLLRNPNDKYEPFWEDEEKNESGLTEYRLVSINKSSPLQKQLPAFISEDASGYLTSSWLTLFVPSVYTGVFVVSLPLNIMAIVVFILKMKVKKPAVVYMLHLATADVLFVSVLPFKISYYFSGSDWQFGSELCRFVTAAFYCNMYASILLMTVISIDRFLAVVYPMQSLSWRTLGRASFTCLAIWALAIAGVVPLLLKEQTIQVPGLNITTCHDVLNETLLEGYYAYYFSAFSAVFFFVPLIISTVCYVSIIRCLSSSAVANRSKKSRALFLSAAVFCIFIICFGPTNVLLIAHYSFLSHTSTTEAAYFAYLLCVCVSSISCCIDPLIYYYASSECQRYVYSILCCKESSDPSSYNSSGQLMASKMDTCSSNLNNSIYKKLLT
# Test: Evaluation of PAR-1 antagonistic action by intracellular calcium concentration variation assay (FLIPR)
# Assay type: cell-based
# Details: human PAR-1-expressing CHO cells, agonist peptide SFLLRN-NH2 final concentration 0.3 nM, Fluo-3AM
# Experimental: Evaluation of PAR-1 Antagonistic Action of Compound by Intracellular Calcium Concentration Variation Assay
# Human PAR-1-expressing cells was plated at 3×10^4 cells/well on a 96 well clear bottom plate (Corning 3904 type) and cultured for 16-24 hr. The medium was removed from the wells of the plate, measurement buffer (50 μL, 115 mM NaCl, 5.4 mM KCl, 1.8 mM CaCl2, 0.8 mM MgCl2, 13.8 mM D-glucose, 0.1% BSA, 20 mM HEPES, pH 7.4) containing 2.5 μg/mL of Fluo-3AM (manufactured by Dojindo Laboratories), 0.08% Pluronic F-127 and 2.5 mM Probenecid was added to the cells and the mixture was reacted at 37° C. for 1 hr. The cells were washed twice with the measurement buffer. After addition of the measurement buffer (100 μL), a measurement buffer (50 μL) containing a test compound was added, and the mixture was stood still for 10 min. The plate was moved to a fluorometry image-plate reader (FLIPR-1, manufactured by Molecular Devices). […] The intracellular calcium concentration was measured by FLIPR.
row,SMILES,IC50 [µM]
1,"CCCc1c(C(=O)NC2CC2)nnn1-c1ccc(NC(=O)C(F)(F)F)cc1 [Example 16, N-cyclopropyl-5-propyl-1-{4-[(trifluoroacetyl)amino]phenyl}-1H-1,2,3-triazole-4-carboxamide]",0.25
2,"CCCc1c(C(=O)NC2CC2)nnn1-c1ccc(NC(=O)CC(F)(F)F)cc1 [Example 25, N-cyclopropyl-5-propyl-1-{4-[(3,3,3-trifluoropropanoyl)amino]phenyl}-1H-1,2,3-triazole-4-carboxamide]",0.094
3,"CCCc1c(C(=O)NC2CC2)nnn1-c1ccc(NC(=O)NCC)cc1 [Example 27, N-cyclopropyl-1-(4-{[(ethylamino)carbonyl]amino}phenyl)-5-propyl-1H-1,2,3-triazole-4-carboxamide]",0.37
4,"CCCc1c(C(=O)NC2CC2)nnn1-c1ccc(NC(=O)NC)cc1 [Example 31, N-cyclopropyl-1-(4-{[(methylamino)carbonyl]amino}phenyl)-5-propyl-1H-1,2,3-triazole-4-carboxamide]",3.7
5,"CCCc1c(C(=O)NC2CC2)nnn1-c1ccc(C(=O)NCC)cc1 [Example 43, N-cyclopropyl-1-{4-[(ethylamino)carbonyl]phenyl}-5-propyl-1H-1,2,3-triazole-4-carboxamide]",1.5
6,"CCCc1c(C(=O)NC2CC2)nnn1-c1ccc(C(=O)NC(C)C)cc1 [Example 49, N-cyclopropyl-1-{4-[(isopropylamino)carbonyl]phenyl}-5-propyl-1H-1,2,3-triazole-4-carboxamide]",3.5
7,"CCCc1c(C(=O)NC2CC2)nnn1-c1ccc(C(=O)NCC)cc1Cl [Example 72, 1-{2-chloro-4-[(ethylamino)carbonyl]phenyl}-N-cyclopropyl-5-propyl-1H-1,2,3-triazole-4-carboxamide]",3.4

# More lines, in order of falling IC50, values ahead:
row,IC50 [µM],SMILES
1,3.6,"CCCNC(=O)c1ccc(-n2nnc(C(=O)NC3CC3)c2CCC)cc1 [Example 55, N-cyclopropyl-5-propyl-1-{4-[(propylamino)carbonyl]phenyl}-1H-1,2,3-triazole-4-carboxamide]"
2,3.4,"CCCc1c(C(=O)NC2CC2)nnn1-c1ccc(C(=O)NC2CC2)cc1 [Example 53, N-cyclopropyl-1-{4-[(cyclopropylamino)carbonyl]phenyl}-5-propyl-1H-1,2,3-triazole-4-carboxamide]"
3,1.6,"CCCc1c(C(=O)NC2CC2)nnn1-c1ccc(C(=O)NC2CCCC2)cc1 [Example 54, 1-{4-[(cyclopentylamino)carbonyl]phenyl}-N-cyclopropyl-5-propyl-1H-1,2,3-triazole-4-carboxamide]"
4,1.4,"CCCc1c(C(=O)NC2CC2)nnn1-c1ccc(C(=O)NCC(C)C)cc1 [Example 52, N-cyclopropyl-1-{4-[(isobutylamino)carbonyl]phenyl}-5-propyl-1H-1,2,3-triazole-4-carboxamide]"
5,0.95,"CCCc1c(C(=O)NC2CC2)nnn1-c1ccc(C(=O)NCC(F)(F)F)cc1 [Example 46, N-cyclopropyl-5-propyl-1-(4-{[(2,2,2-trifluoroethyl)amino]carbonyl}phenyl)-1H-1,2,3-triazole-4-carboxamide]"
6,0.75,"CCCc1c(C(=O)NC2CC2)nnn1-c1ccc(NC(=O)COC)cc1 [Example 19, N-cyclopropyl-1-{4-[(methoxyacetyl)amino]phenyl}-5-propyl-1H-1,2,3-triazole-4-carboxamide]"
7,0.63,"C=CCCc1c(C(=O)NC2CC2)nnn1-c1ccc(NC(=O)NCC)cc1 [Example 41, 5-(3-buten-1-yl)-N-cyclopropyl-1-(4-{[(ethylamino)carbonyl]amino}phenyl)-1H-1,2,3-triazole-4-carboxamide]"
8,0.55,"CCCc1c(C(=O)NC2CC2)nnn1-c1ccc(NC(=O)C2CC2)cc1 [Example 4, N-cyclopropyl-1-{4-[(cyclopropylcarbonyl)amino]phenyl}-5-propyl-1H-1,2,3-triazole-4-carboxamide]"
9,0.52,"CCCc1c(C(=O)NC2CC2)nnn1-c1ccc(NC(=O)C(C)C)cc1 [Example 3, N-cyclopropyl-1-[4-(isobutyrylamino)phenyl]-5-propyl-1H-1,2,3-triazole-4-carboxamide]"

# — patent US7803822B2, “Triazole derivative and use thereof” (Takeda Pharmaceutical Company Limited, priority 2005, dated 2010)
